Seven compounds from patent US20250339569A1, “CARBONIC ANHYDRASE IX LIGANDS” (priority 2021, published 2025) can be followed below.

Structures are written as SMILES. Starred links: 1 amine or outer side, 2 acyl side, 3 side chain; linkers in the order of their positions; H or OH if unused. Positions of bridges follow the written chain, without caps; N, C: chain ends. Non-standard residues stand in square brackets, D forms with d. Residues, ends and D or L forms follow the SMILES beside them. *: point of attachment. X47 = NC(=O)[C@H](CCCCNC(=O)CCCC[C@@H]1SC[C@@H]2NC(=O)N[C@@H]21)NC(=O)CCC(=O)NCCCOCCOCCOCCCN*; X69 = CC1(C)C(/C=C/C=C/C=C2\N(CCCCS(=O)(=O)O)c3ccccc3C2(C)C)=[N+](CCCCCC(=O)*)c2ccccc21; mXylylene = c1cc(C[*:1])cc(C[*:2])c1; X2 = O=C(CN1CCC(N[*:1])CC1)[*:2]

Series [1] addresses T1, CAIX-expressing human HT-29 colorectal cancer cells (Homo sapiens, UniProt Q16790).
T1 construct: CAIX-expressing human HT-29 colorectal cancer cells; host or cells: HT-29 human colorectal cancer cells
The series can be described thus: FACS binding assay (EC50 determination, labeled compound). The note with it: biotinylated or fluorophore-labeled compound, HT-29 cells, 4°C, 1 hour, read-out: pEC50 category (activity) (converted). As to the method: In order to determine binding of compounds according to the present invention to CAIX-expressing cells, a FACS binding assay was established.
CAIX-expressing human HT-29 colorectal cancer cells (DSMZ, RRID: CVCL_0320) were cultured in McCoys's 5A modified medium (Biochrom, #F1015) including 10% fetal calf serum (FCS), 2 mM L-glutamine, 100 U/ml penicillin and 100 μg/mL streptomycin. Cells were detached with Accutase (Biolegend, #423201) and washed in FACS buffer (PBS including 1% FCS). Cells were diluted in FACS buffer to a final concentration of 500.000 cells per ml. 200 μL of the cell suspension were transferred to a u-shaped non-binding 96-well plate (Greiner) and cells were washed in ice-cold FACS buffer.
When biotinylated compounds were used an additional incubation step with 1 μg/mL APC-Streptavidin (Miltenyi; #130-106-791) in 50 μL FACS buffer for 30 minutes on ice was performed.
Cells were washed twice with ice-cold FACS buffer and analyzed in an Attune NxT flow cytometer (Thermo Fisher). Median fluorescence intensities (MFI) of the APC/Cy5-channel were calculated by Attune NxT software. MFI values were plotted against peptide concentration and four parameter logistic (4PL) curve fitting and EC50/pEC50 or IC50/pIC50 calculations were performed using ActivityBase software.
On the technique in general: Flow cytometry measures light scatter and fluorescence of single cells or particles in a stream.

Series [2] concerns SK-RC-52 (ccRCC) human cancer cell line xenograft. The series can be described thus: In vivo efficacy, uptake and tolerability of 177Lu-DPI-4452 (and 68Ga-DPI-4452) in SK-RC-52 xenograft mouse model. Also on record: species or system NMRI nude mice. The note with it: SK-RC-52 model; for tolerability of treatment: 177Lu 33 or 100 MBq or 3×33 MBq, 68Ga 10 MBq, i.v.; for uptake in tumor compared to kidney and liver: SPECT/CT 4 h (177Lu) or PET/CT 1 h (68Ga). As to the method:
(§1) The human colorectal cancer cell line HT-29 was cultured in Modified McCoy's 5a Medium supplemented with 10% FBS+1% Pen/Strep, and the human clear cell renal cancer cell line SK-RC-52 was cultured in RPMI-1640 GlutaMax-I supplemented with 10% FBS+1% Pen/Strep.
(§2) 2×10^6 cells were suspended in 100 μL PBS and Matrigel (1:1) and subcutaneously implanted into the neck of anesthetized female immunodeficient NMRI nude mice. Tumor volume (0.52×(length×width^2)) and animal weight was monitored twice weekly until 42 days post treatment initiation. Animals were humanely euthanized by cervical dislocation at predefined study or humane endpoints.
(§3) Animals were randomized into equal groups based on tumor volume and body weight. Treatments were initiated at a mean group tumor volume of 140-180 mm^3 and administered intravenously in the tail vein in a 100 μL dosing volume.
(§4) For both models, treatment groups consisted of 10 mice per group and received either a A) Single administration (day 1) of vehicle, B) Single administration (day 1) of 100 MBq of ^177Lu-DPI-4452, C) Single administration (day 1) of 33 MBq of ^177Lu-DPI-4452 or D) Three administrations (day 1, 8, 15) of 33 MBq of ^177Lu-DPI-4452. To correlate the ^68Ga-DPI-4452 signal with the ^177Lu-DPI-4452 uptake in tumors, an additional satellite group E of 6 mice received a single administration (day 1) of 10 MBq of ^68Ga-DPI-4452 followed by a single administration (day 8) of 33 MBq of ^177Lu-DPI-4452.
(§5) In groups A-D, radioactivity uptake (as % of injected dose/gram tissue) was assessed in the tumor, kidney, and liver in 3 animals per treatment group by whole-body SPECT/CT imaging (nanoScan SPECT/CT, Mediso) at 4 h after each ^177Lu-DPI-4452 administration, using the following parameters: • Imaging bed: Two/three mice bed • CT acquisition • Helical scan, 480 projections • Pitch=1.0 • Voltage=50 kVp • Exposure=170 ms • SPECT acquisition: • Pinhole SPECT • Energy windows: Primor Peak 208 full width: 20%, Secondary 112.9, Tertiary: 56.1 keV • Acquisition time: Up to 30 min • Frame time: 30 s
(§6) In the satellite mice (group E), radioactivity uptake (as % of injected dose/gram tissue) was assessed in the tumor, kidney, and liver in all 6 animals by both whole-body SPECT imaging at 4 h after administration of 33 MBq ^177Lu-DPI-4452, and by whole-body PET/CT imaging (nanoScan PET/CT, Mediso) at 1 h after 10 MBq ^68Ga-DPI-4452 administration, using the following parameters: • Animals per bed: 3 • PET acquisition time: Up to 10 min • PET acquisition start: 1 hour after injection
(§7) One week later the 6 satellite mice were then assessed again for radioactivity uptake by whole-body SPECT/CT imaging at 4 h after the single ^177Lu-DPI-4452 administration using parameters as described above.
(§8) For both models blood sampling for hematology was performed on all animals in group A-D at study day −1, 7, 14 and at study end. Each mouse was restrained and 200 μl blood was obtained from the sublingual or jugular vein in EDTA-tubes and analyzed on the sampling day on a ProCyte Dx Hematology Analyzer with mouse settings. In addition, for the SK-RC-52 model at study day 14 and at study end (day 43), excess blood from the hematology analysis was spun and plasma was obtained (centrifugation at 2000 g for 10 mins at 4° C. in EDTA tubes). The plasma was analyzed for creatinine and urea concentrations using a KONELAB PRIME 30i instrument (Thermo Fisher Scientific).

Series [3] deals with HT-29 (CRC) human cancer cell line xenograft. The series can be described thus: In vivo efficacy, uptake and tolerability of 177Lu-DPI-4452 (and 68Ga-DPI-4452) in HT-29 xenograft mouse model. The arrangement: species or system NMRI nude mice. As to conditions: HT-29 model; for tolerability of treatment: 177Lu 33 or 100 MBq or 3×33 MBq, 68Ga 10 MBq, i.v.; for uptake in tumor compared to kidney and liver: SPECT/CT 4 h (177Lu) or PET/CT 1 h (68Ga). As to the method: as §1, §2, §3, §4, §5, §6, §7, §8

As for `CC[C@H](C)[C@@H]1NC(=O)[C@H](CCC(=O)O)NC(=O)[C@@H](NC(=O)[C@H](CCC(N)=O)NC(=O)[C@@H](N)CCSC)CSCc2cccc(c2)CSC[C@@H](C(=O)NCCCOCCOCCOCCCNC(=O)CCC(=O)N[C@@H](CCCCNC(=O)CCCC[C@@H]2SC[C@@H]3NC(=O)N[C@@H]32)C(N)=O)NC(=O)[C@H]([C@@H](C)O)NC(=O)[C@H](C(C)C)NC(=O)[C@H](Cc2c[nH]c3ccccc23)NC(=O)CNC(=O)[C@H](CC(=O)O)NC(=O)[C@H](C(C)C)NC(=O)[C@H](Cc2c[nH]c3ccccc23)NC1=O` [3BP-2775] (H-MQCEIWVDGWVTC-X47; linker 3-13 via mXylylene), the EC50 in series [1] is 10 to 79.4 nM.
On to `CSCC[C@H](N)C(=O)N[C@H](C(=O)N[C@@H](Cc1ccc(O)cc1)C(=O)N[C@H]1CSCc2cccc(c2)CSC[C@@H](C(=O)NCCCOCCOCCOCCCNC(=O)CCC(=O)N[C@@H](CCCCNC(=O)CCCC[C@@H]2SC[C@@H]3NC(=O)N[C@@H]32)C(N)=O)NC(=O)[C@H](CCC(N)=O)NC(=O)[C@H](Cc2c[nH]c3ccccc23)NC(=O)[C@H]([C@@H](C)O)NC(=O)[C@H](CC(C)C)NC(=O)[C@H](Cc2c[nH]c3ccccc23)NC(=O)[C@H](CC(=O)O)NC(=O)CNC(=O)[C@H](CCC(=O)O)NC1=O)C(C)C` [3BP-2776] (H-MVYCEGDWLTWQC-X47; linker 4-13 via mXylylene), for which the EC50 in series [1] was below 10 nM.
On the same count and under the same terms, the same measure for `CSCC[C@H](N)C(=O)N[C@H](C(=O)N[C@@H](Cc1ccc(O)cc1)C(=O)N[C@H]1CSCc2cccc(c2)CSC[C@@H](C(=O)NCCCOCCOCCOCCCNC(=O)CCC(=O)N[C@@H](CCCCNC(=O)CCCC[C@@H]2SC[C@@H]3NC(=O)N[C@@H]32)C(N)=O)NC(=O)[C@H](CO)NC(=O)[C@H](Cc2c[nH]c3ccccc23)NC(=O)CNC(=O)[C@H](CC(C)C)NC(=O)[C@H](Cc2c[nH]c3ccccc23)NC(=O)[C@H](CO)NC(=O)CNC(=O)[C@H](CCC(=O)O)NC1=O)C(C)C` [3BP-2777] (H-MVYCEGSWLGWSC-X47; linker 4-13 via mXylylene): below 10 nM; for `CC[C@H](C)[C@@H]1NC(=O)[C@H](CCC(=O)O)NC(=O)[C@@H](NC(=O)[C@H](CCCNC(=N)N)NC(=O)[C@@H](N)CCSC)CSCc2cccc(c2)CSC[C@@H](C(=O)NCCCOCCOCCOCCCNC(=O)CCC(=O)N[C@@H](CCCCNC(=O)CCCC[C@@H]2SC[C@@H]3NC(=O)N[C@@H]32)C(N)=O)NC(=O)[C@H](CC(=O)O)NC(=O)[C@H](C(C)C)NC(=O)[C@H](Cc2c[nH]c3ccccc23)NC(=O)CNC(=O)[C@H](CC(=O)O)NC(=O)[C@H](C(C)C)NC(=O)[C@H](Cc2c[nH]c3ccccc23)NC1=O` [3BP-2778] (H-MRCEIWVDGWVDC-X47; linker 3-13 via mXylylene): below 10 nM.
As for `CC(C)C[C@@H]1NC(=O)[C@H](Cc2c[nH]c3ccccc23)NC(=O)[C@H](CC(=O)O)NC(=O)[C@H]2CCCN2C(=O)[C@H](CCC(=O)O)NC(=O)[C@@H](NC(=O)[C@H](Cc2ccc(O)cc2)NC(=O)[C@@H](NC(=O)CN2CCC(NC(=O)CCCCC[N+]3=C(/C=C/C=C/C=C4\N(CCCCS(=O)(=O)O)c5ccccc5C4(C)C)C(C)(C)c4ccccc43)CC2)C(C)C)CSCc2cccc(c2)CSC[C@@H](C(N)=O)NC(=O)[C@H](CO)NC(=O)[C@H](Cc2c[nH]c3ccccc23)NC(=O)[C@H]([C@@H](C)O)NC1=O` [3BP-4149, Cy5SO3-APAc-Val-Tyr-[Cys(3MeBn)-Glu-pro-Asp-Trp-Leu-Thr-Trp-Ser-Cys]-NH2] (X69-[X2]VYCE[dP]DWLTWSC-NH2; linker 4-13 via mXylylene), the EC50 in series [1] was below 10 nM.
On to `CC(C)C[C@@H]1NC(=O)[C@H](Cc2cccc(NC(=O)CCCS(N)(=O)=O)c2)NC(=O)[C@H](CC(=O)O)NC(=O)[C@H]2CCCN2C(=O)[C@H](CCC(=O)O)NC(=O)[C@@H](NC(=O)[C@H](CCC(N)=O)NC(=O)CN2CCN(C(=O)CN3CCN(CC(=O)O)CCN(CC(=O)O)CCN(CC(=O)O)CC3)CC2)CSCc2cccc(c2)CSC[C@@H](C(N)=O)NC(=O)[C@H](CO)NC(=O)[C@H](Cc2c[nH]c3ccccc23)NC(=O)[C@H]([C@@H](C)O)NC1=O` [^68Ga-DPI-4452, metal not drawn], for which, in series [2], the tolerability of treatment entry is on record as “well tolerated”; the “uptake in tumor compared to kidney and liver” value is listed as “Preferential tumor uptake”. In series [3], the tolerability of treatment result is recorded as “well tolerated”; the “uptake in tumor compared to kidney and liver” value is given as “Preferential tumor uptake”.
Turning to `CC(C)C[C@@H]1NC(=O)[C@H](Cc2cccc(NC(=O)CCCS(N)(=O)=O)c2)NC(=O)[C@H](CC(=O)O)NC(=O)[C@H]2CCCN2C(=O)[C@H](CCC(=O)O)NC(=O)[C@@H](NC(=O)[C@H](CCC(N)=O)NC(=O)CN2CCN(C(=O)CN3CCN(CC(=O)O)CCN(CC(=O)O)CCN(CC(=O)O)CC3)CC2)CSCc2cccc(c2)CSC[C@@H](C(N)=O)NC(=O)[C@H](CO)NC(=O)[C@H](Cc2c[nH]c3ccccc23)NC(=O)[C@H]([C@@H](C)O)NC1=O` [^177Lu-DPI-4452, metal not drawn], the “white blood cells, lymphocytes and neutrophils versus vehicle” value in series [2] (33/100 MBq) and in series [3] (33/100 MBq) was “relative suppression” each time. The “creatinine and urea levels” value in series [2] (plasma, day 14 and study end) is “No differences in creatinine and urea levels between treatment groups”. In addition, the tolerability of treatment result in series [2] and in series [3] was “well tolerated” each time. Further, the “uptake in tumor compared to kidney and liver” value in series [2] is “Preferential uptake in the tumor compared to kidney and liver”; in series [3], “Preferential uptake in the tumor compared to kidney and liver”.
